The nature of the data set: Human HepG2 cell viability assay in 384 well format. In kind it is toxicity, cell-based. Also noted: dose 125 nL, time 70.5 hour; cytotoxicity at 70.5 h: concentration not given beside the values. The following applies: HepG2 cells, read-out: Inhibition.
`CS(=O)(=O)N1CCC(c2nnc3ccc(C(=O)NC4CCC4)cn23)C1` (stereo unspecified): the cytotoxicity at 70.5 h came out at 12.6%.

For the molecule `CN1C[C@@H](n2cnc(-c3ccccc3)c2-c2ncc[nH]2)C[C@H]1C(=O)O`, the cytotoxicity at 70.5 h came out at 5.36%.

With `CCc1cc(C(=O)N2CC[C@@H](c3ccc4c(c3)OCO4)[C@H](O)C2)[nH]n1`, the cytotoxicity at 70.5 h came out at 25.7%.

As for `CCC(C#N)NC(=O)c1cc(Br)c2c(c1)OCCO2` (stereo unspecified), the cytotoxicity at 70.5 h is -9.18%.

For the molecule `Cc1nc(CNC2CCc3ncnn3C2)oc1C` (stereo unspecified), the cytotoxicity at 70.5 h was -5.86%.

For the molecule `CN(Cc1cnn(C)c1)C(=O)NCc1csc(Br)c1`, the cytotoxicity at 70.5 h came to 17.7%.

For the molecule `Cc1ccc(OCCN(C)C(=O)CCCC(N)=O)c(C)c1`, the cytotoxicity at 70.5 h was -5.93%.

For the molecule `Cc1ccc(C(=O)N2CCC(Oc3cccc(C)c3C)CC2)c(=O)[nH]1`, the cytotoxicity at 70.5 h is -4.54%.

As to `COc1ccccc1CNC(Cc1cccs1)c1nc(C)c(C)s1` (stereo unspecified), the cytotoxicity at 70.5 h is 8.5%.

As for `CN1CCc2nc3cc(C(=O)NCc4cccs4)ccc3c(=O)n2CC1`, the cytotoxicity at 70.5 h was -2.15%.

For `Cc1noc(NC(=O)c2ccccc2)n1`, the cytotoxicity at 70.5 h is -5.17%.

For `COc1c(CNCC(=O)N2CCN(C)CC2)c(C(C)C)nn1C`, the cytotoxicity at 70.5 h is -5.29%.

`O=C([C@H]1CCCO1)N1CCc2ncnc(C3CC3)c2CC1`: the cytotoxicity at 70.5 h was -11.8%.

For `Cc1ccc(C(=O)N2CC[C@H]3[C@H]2CCN3CC2CCOCC2)cn1`, the cytotoxicity at 70.5 h was -9.27%.

With `NC(=O)C(NC1CCN(CC2CCCCC2)CC1)c1ccccc1` (stereo unspecified), the cytotoxicity at 70.5 h was -4.82%.

Consider `CCC1CN(C(=O)c2ccccc2N2CCOCC2)CCN1C(C)C` (stereo unspecified), for which the cytotoxicity at 70.5 h was -1.59%.

In the case of `CC1CN(C)CCN1C(=O)c1ccn(-c2ccccc2Cl)n1` (stereo unspecified), the cytotoxicity at 70.5 h was determined as 16.7%.

As to `CCn1ncc2c1CCCC2NCc1ccc2c(c1)OCCO2` (stereo unspecified), the cytotoxicity at 70.5 h was determined as 4.09%.

Consider `Cn1cc(CN2C[C@@H]3CN(C(=O)c4cccn4C)CCO[C@@H]3C2)cn1`, for which the cytotoxicity at 70.5 h was -2.93%.

`CCc1nnc2n1CCN(C(C(N)=O)c1ccc(F)cc1)C2` (stereo unspecified): the cytotoxicity at 70.5 h came to 26.6%.

Regarding `CCCSCC(=O)N1CCC2(CC1)CC(c1ccccc1)CN(C)C2` (stereo unspecified), the cytotoxicity at 70.5 h was determined as 4.01%.

Turning to `O=C(C1CCCO1)N1CCC(O)(Cn2ccc3ccncc32)CC1` (stereo unspecified), the cytotoxicity at 70.5 h came to 15.9%.

Turning to `CN1CCN(CC[C@@H]2CC[C@H](O)[C@@H](C(=O)Nc3ccccc3)O2)CC1`, the cytotoxicity at 70.5 h was 1.15%.

In the case of `Cc1cc(C)n(CC(=O)N2CCC(Nc3cccnn3)CC2)n1`, the cytotoxicity at 70.5 h was -5.61%.

In the case of `CC(C)C(=O)N1CCc2c(CN(C)Cc3ccco3)cncc2C1`, the cytotoxicity at 70.5 h is -9.73%.

As for `CN(C)CCO[C@H]1CN(C(=O)c2cccs2)[C@@H]2COC[C@H]12`, the cytotoxicity at 70.5 h came out at 20.9%.

As to `CCNC(=O)N1CCCC(c2noc(CC)n2)C1` (stereo unspecified), the cytotoxicity at 70.5 h was -3.02%.

For the molecule `Cc1nnc(CN(C)C(=O)C(CC(C)C)N2CCCCC2=O)n1C` (stereo unspecified), the cytotoxicity at 70.5 h was -5.01%.

For the molecule `CC(C)c1cc(C(=O)N2CCC3(CC2)c2ccccc2[C@@H](N)[C@@H]3O)cs1`, the cytotoxicity at 70.5 h is -10.7%.

As for `CC(C)n1nccc1C(=O)N1CCC(c2nnsc2S(C)(=O)=O)CC1`, the cytotoxicity at 70.5 h is -6.33%.

Take `Cc1nc(C)n(C2CCCN(C(=O)c3ccc(F)cc3F)C2)n1` (stereo unspecified): the cytotoxicity at 70.5 h was -4.94%.

Turning to `COc1ccc(CN2CCOC3(CCCN(C(C)=O)C3)C2)cc1` (stereo unspecified), the cytotoxicity at 70.5 h is -1.06%.

Turning to `CCc1nsc(N2CCCN(C(=O)c3ccsc3)CC2)n1`, the cytotoxicity at 70.5 h was 14%.

On to `COCc1nc(C(=O)NS(=O)(=O)c2cc(Br)ccc2C)cs1`, for which the cytotoxicity at 70.5 h was determined as 1.93%.

As for `Cc1cc(C(=O)NCc2ccnc(N3CCN(C)CC3)c2)sc1C`, the cytotoxicity at 70.5 h amounted to 20.5%.

Consider `COc1ccc(C)cc1CC(=O)N1CCN(CC(C)O)CC1` (stereo unspecified), for which the cytotoxicity at 70.5 h was -5.05%.

Take `Cc1cnc(CN(Cc2cccc(O)c2)CC2CC2)cn1`: the cytotoxicity at 70.5 h was -6.41%.

Take `CC(c1nc(C2CC2)no1)N1CCN(CCS(C)(=O)=O)CC1` (stereo unspecified): the cytotoxicity at 70.5 h was -4.19%.

With `Cc1ccc(C(=O)N2CCSCC2)cc1NC(=O)Cn1cncn1`, the cytotoxicity at 70.5 h is -6.81%.

For the molecule `CCC(C(=O)N(C)Cc1cc(-c2ccccc2)n[nH]1)n1cccn1` (stereo unspecified), the cytotoxicity at 70.5 h was -13.1%.

As for `CC(C(=O)Nc1ccnn1C(C)C)N1CCN(Cc2ccccc2)CC1` (stereo unspecified), the cytotoxicity at 70.5 h is -7.81%.

On to `CCNS(=O)(=O)c1ccc2c(c1)c(=O)n(CC)c(=O)n2CC`, for which the cytotoxicity at 70.5 h was found to be 2%.

Consider `Cc1nn(C)c(N(C)C)c1CNC(C)COc1ccc(F)cc1F` (stereo unspecified), for which the cytotoxicity at 70.5 h is -8.01%.

`N#CCC(=O)NCc1nnc2n1CCN(Cc1cccs1)C2`: the cytotoxicity at 70.5 h was -6.57%.

For the molecule `Cc1nc(CNCc2ccc(N3CCN(C)CC3)nc2)cs1`, the cytotoxicity at 70.5 h was found to be 16.7%.

In the case of `Cn1ccnc1CN1CCC2(CC1)COC2`, the cytotoxicity at 70.5 h was -7.76%.

In the case of `CC(C)NC(=O)N1CCC2(CC(=O)N(c3ccccc3)C2)C1` (stereo unspecified), the cytotoxicity at 70.5 h came out at 17.9%.

`Cc1ccc(-c2cc(CNc3ncnc4c3CCNCC4)no2)cc1`: the cytotoxicity at 70.5 h is 1.89%.

For `CN(C)C(=O)COc1ccccc1CN1CCCC2(C1)CN(C)C(=O)O2` (stereo unspecified), the cytotoxicity at 70.5 h was -7.63%.

For `CCOc1ccc(NC2CCN(CC(F)(F)F)C2=O)cc1C` (stereo unspecified), the cytotoxicity at 70.5 h was -5.71%.

Consider `Nc1nc(CC(=O)N2CCCC(CCc3cccc(F)c3)C2)cc(=O)[nH]1` (stereo unspecified), for which the cytotoxicity at 70.5 h is -12.2%.

Take `O=c1[nH]cc(Nc2ccc(Cl)cc2)c(=O)[nH]1`: the cytotoxicity at 70.5 h is 29.9%.

For `COc1ccc2nc(C[C@@H]3C[C@@H](C(C)C)[C@H](CN)C=C3C)[nH]c2n1`, the cytotoxicity at 70.5 h was -4.84%.

In the case of `CNc1cc(-c2nc(CCN3CCCC3=O)no2)ccn1`, the cytotoxicity at 70.5 h came out at 12.1%.

`CCNC(=O)NC(=O)CSC(C)c1ccccc1F` (stereo unspecified): the cytotoxicity at 70.5 h was -9.82%.

For the molecule `CC1c2ncc(Cn3cncn3)n2CCN1C(=O)c1ccsc1` (stereo unspecified), the cytotoxicity at 70.5 h was -4.72%.

In the case of `O=C(c1ccc(C(F)(F)F)cc1)N1C[C@@H](CN2CCCCC2)[C@@H](CO)C1`, the cytotoxicity at 70.5 h was 3.19%.

As to `CC(C)n1cnnc1CN(C)Cc1cnc(-c2ccco2)nc1`, the cytotoxicity at 70.5 h is -1.59%.

With `COc1cc(F)c(S(=O)(=O)Nc2cnc(O)cc2C)cc1OC`, the cytotoxicity at 70.5 h is -11.9%.

With `Cc1ncccc1CNCC1CCN(CCO)CC1`, the cytotoxicity at 70.5 h was -0.718%.

For the molecule `Cc1cc(Nc2ccc(F)cn2)cc(C2CCN(Cc3ncc[nH]3)C2)n1` (stereo unspecified), the cytotoxicity at 70.5 h was -0.353%.

For the molecule `Cn1nc2c(cc1=O)CN(Cc1nnc(-c3ccc(F)cc3)o1)CC2`, the cytotoxicity at 70.5 h is -22.9%.

In the case of `Cc1sc(-n2cnnn2)c(C(=O)NC(C)C)c1C`, the cytotoxicity at 70.5 h was -10.9%.

`COc1ccccc1CC(=O)N1CCCC(n2nc(C)cc2C)C1` (stereo unspecified): the cytotoxicity at 70.5 h stood at 2.04%.

Turning to `CCS(=O)(=O)N(C)C(=O)c1cc(C)n(-c2cccc(OC)c2)c1C`, the cytotoxicity at 70.5 h was determined as 27.9%.

Regarding `CN(Cc1cnn(C)c1)Cc1nc(CCc2ccccc2)no1`, the cytotoxicity at 70.5 h is -4.56%.

For the molecule `Cn1cc(C2COC3(CCN(C(=O)c4cnccn4)CC3)C2)cn1` (stereo unspecified), the cytotoxicity at 70.5 h was -12.7%.

As for `COCc1nc(CNc2cccc(-c3nc(C)c(C)o3)c2)cs1`, the cytotoxicity at 70.5 h was -16.1%.

Consider `CCCOc1c(CNC2CCSC2)cccc1OC` (stereo unspecified), for which the cytotoxicity at 70.5 h is -11.2%.

With `CCN1CCN(C2CCN(Cc3nc(-c4ccoc4)no3)CC2)C1=O`, the cytotoxicity at 70.5 h was 1.49%.

With `COCCN(C(=O)c1ccsc1)c1ccc(C#N)cc1`, the cytotoxicity at 70.5 h is -3.69%.

For the origin of these results see ChEMBL document CHEMBL3507680, “University of Dundee, Gates Library screen for HepG2 cell viability”.
